Results published in patent US20070118920A1, “Herbicide-resistant sunflower plants, polynucleotides encoding herbicide-resistant acetohydroxyacid synthase large subunit proteins, and methods of use” (priority 2005, published 2007).

Legend:
[1] = tested on: homozygous M5 MUT9 sunflower plants; assay: Field trial, tolerance to sulfonylurea herbicides (% injury); assay type: in vivo, Helianthus annuus; details: six-leaf stage
From the text: (§1) To evaluate the resistance of MUT9 sunflower plants to sulfonylurea herbicides, RHA266 (wild-type) and MUT9 sunflower plants were planted outdoors in Balcarce, Argentina during the growing season in an RCBD field trial with two replications to evaluate the tolerance of homozygous M5 MUT9 plants to the sulfonylurea herbicides tribenuron methyl (TBM) and thifensulfuron (TFS) at 1× and 2× rates applied at the six-leaf stage. Due to the lack of MUT9 seed, one herbicide was sprayed in each replication. The 1× rates for TBM and TFS are 13.15 g a.i./ha and 4.4 g a.i./ha, respectively.

[2] = tested on: RHA266 (wild-type) sunflower plants; assay: as above; assay type: in vivo, Helianthus annuus; details: six-leaf stage
From the text: as §1

[3] = rate 1X (TBM 13.15 g a.i./ha, TFS 4.4 g a.i./ha)
[4] = rate 2X (1X: TBM 13.15 g a.i./ha, TFS 4.4 g a.i./ha)

Row | SMILES | % Injury [1, 3] [%] | % Injury [1, 4] [%] | % Injury [2, 4] [%] | % Injury [2, 3] [%]
1 | COC(=O)c1ccccc1S(=O)(=O)NC(=O)N(C)c1nc(C)nc(OC)n1 [TBM, tribenuron methyl] | 75 | 75 | 45 | –
2 | COc1nc(C)nc(NC(=O)NS(=O)(=O)c2ccsc2C(=O)O)n1 [TFS, thifensulfuron] | 75 | 75 | 75 | 75
